The subject of series [1] is Cyperus rotundus. In words: Herbicidal activity against Cyperus rotundus assessed as total fresh weight at 2.5 kg/ha applied as spray before seed sowing (reference value: 23.6 MT/ha). It counts as functional.
The subject of series [2] is Chenopodiastrum murale. In words: Herbicidal activity against Chenopodium murale assessed as total fresh weight at 2.5 kg/ha applied as spray before seed sowing (reference value: 23.6 MT/ha). It counts as functional.
Series [3] concerns Malva sylvestris. The series is described as follows: Herbicidal activity against Malva sylvestris assessed as total fresh weight at 2.5 kg/ha applied as spray before seed sowing (reference value: 23.6 MT/ha). The format is functional.
The test system of series [4] is Cyperus rotundus. In words: Herbicidal activity against Cyperus rotundus assessed as total dry weight at 2.5 kg/ha applied as spray before seed sowing (reference value: 4.1 MT/ha). The format is functional.
Series [5] deals with Malva sylvestris. The series is described as follows: Herbicidal activity against Malva sylvestris assessed as total dry weight at 2.5 kg/ha applied as spray before seed sowing (reference value: 4.1 MT/ha). The format is functional.
In series [6] the test system is Chenopodiastrum murale. In words: Herbicidal activity against Chenopodium murale assessed as total dry weight at 2.5 kg/ha applied as spray before seed sowing (reference value: 4.1 MT/ha). The format is functional.
In series [7] the test system is Allium cepa. The series is described as follows: Phytotoxicity in Allium cepa (onion) seedling assessed as total fresh weight at 2.5 kg/ha applied as spray before seed sowing (reference value: 7.71 MT/ha). It counts as organism-based. The note with it: in vivo, other.
In series [8] the test system is Cyperus rotundus. In words: Herbicidal activity against Cyperus rotundus assessed as total fresh weight at 1.5 kg/ha applied as spray before seed sowing (reference value: 23.6 MT/ha). It counts as functional. The note with it: pooled result: one value given for 3 cell lines, strains, targets or settings.
In series [9] the test system is Cyperus rotundus. The series is described as follows: Herbicidal activity against Cyperus rotundus assessed as total dry weight at 1.5 kg/ha applied as spray before seed sowing (reference value: 4.1 MT/ha). The format is functional. The note with it: pooled result: one value given for 3 cell lines, strains, targets or settings.
Series [10] concerns Allium cepa. In words: Phytotoxicity in Allium cepa (onion) seedling assessed as total fresh weight at 1.5 kg/ha applied as spray before seed sowing (reference value: 7.71 MT/ha). It counts as organism-based. The note with it: in vivo, other.
Series [11] concerns Cyperus rotundus. The series is described as follows: Herbicidal activity against Cyperus rotundus assessed as total fresh weight at 3.2 kg/ha applied as spray before seed sowing (reference value: 23.6 MT/ha). The format is functional.
The test system of series [12] is Malva sylvestris. In words: Herbicidal activity against Malva sylvestris assessed as total fresh weight at 3.2 kg/ha applied as spray before seed sowing (reference value: 23.6 MT/ha). The format is functional.
Series [13] relates to Chenopodiastrum murale. The series is described as follows: Herbicidal activity against Chenopodium murale assessed as total fresh weight at 3.2 kg/ha applied as spray before seed sowing (reference value: 23.6 MT/ha). It counts as functional.
Series [14] has as its system Chenopodiastrum murale. The series is described as follows: Herbicidal activity against Chenopodium murale assessed as total dry weight at 3.2 kg/ha applied as spray before seed sowing (reference value: 4.1 MT/ha). It counts as functional.
Series [15] relates to Cyperus rotundus. In words: Herbicidal activity against Cyperus rotundus assessed as total dry weight at 3.2 kg/ha applied as spray before seed sowing (reference value: 4.1 MT/ha). The format is functional.
For series [16], the system named is Malva sylvestris. In words: Herbicidal activity against Malva sylvestris assessed as total dry weight at 3.2 kg/ha applied as spray before seed sowing (reference value: 4.1 MT/ha). The format is functional.
Series [17] concerns Allium cepa. The series is described as follows: Phytotoxicity in Allium cepa (onion) seedling assessed as total fresh weight at 3.2 kg/ha applied as spray before seed sowing (reference value: 7.71 MT/ha). The format is organism-based. The note with it: in vivo, other.
Series [18] deals with Cyperus rotundus. In words: Herbicidal activity against Cyperus rotundus assessed as total dry weight at 0.1 kg/ha applied as spray during post-emergence (reference value: 4.1 MT/ha). The format is functional.
The test system of series [19] is Malva sylvestris. The series is described as follows: Herbicidal activity against Malva sylvestris assessed as total dry weight at 0.1 kg/ha applied as spray during post-emergence (reference value: 4.1 MT/ha). The format is functional.
Series [20] concerns Chenopodiastrum murale. In words: Herbicidal activity against Chenopodium murale assessed as total dry weight at 0.1 kg/ha applied as spray during postemergence (reference value: 4.1 MT/ha). The format is functional.
Series [21] concerns Cyperus rotundus. The series is described as follows: Herbicidal activity against Cyperus rotundus assessed as total fresh weight at 0.1 kg/ha applied as spray during post-emergence (reference value: 23.6 MT/ha). The format is functional.
Series [22] concerns Malva sylvestris. The series is described as follows: Herbicidal activity against Malva sylvestris assessed as total fresh weight at 0.1 kg/ha applied as spray during post-emergence (reference value: 23.6 MT/ha). The format is functional.
Series [23] concerns Chenopodiastrum murale. In words: Herbicidal activity against Chenopodium murale assessed as total fresh weight at 0.1 kg/ha applied as spray during postemergence (reference value: 23.6 MT/ha). The format is functional.
The subject of series [24] is Allium cepa. In words: Phytotoxicity in Allium cepa (onion) seedling assessed as total fresh weight at 0.1 kg/ha applied as spray during postemergence (reference value: 7.71 MT/ha). The format is organism-based. The note with it: in vivo, other.
Series [25] has as its system Cyperus rotundus. The series is described as follows: Herbicidal activity against Cyperus rotundus assessed as total dry weight at 0.86 kg/ha applied as spray before seed sowing (reference value: 4.1 MT/ha). It counts as functional.
The subject of series [26] is Malva sylvestris. In words: Herbicidal activity against Malva sylvestris assessed as total dry weight at 0.86 kg/ha applied as spray before seed sowing (reference value: 4.1 MT/ha). The format is functional.
Series [27] deals with Chenopodiastrum murale. In words: Herbicidal activity against Chenopodium murale assessed as total dry weight at 0.86 kg/ha applied as spray before seed sowing (reference value: 4.1 MT/ha). It counts as functional.
In series [28] the test system is Malva sylvestris. The series is described as follows: Herbicidal activity against Malva sylvestris assessed as total fresh weight at 0.86 kg/ha applied as spray before seed sowing (reference value: 23.6 MT/ha). The format is functional.
Series [29] deals with Cyperus rotundus. The series is described as follows: Herbicidal activity against Cyperus rotundus assessed as total fresh weight at 0.86 kg/ha applied as spray before seed sowing (reference value: 23.6 MT/ha). The format is functional.
Series [30] relates to Chenopodiastrum murale. In words: Herbicidal activity against Chenopodium murale assessed as total fresh weight at 0.86 kg/ha applied as spray before seed sowing (reference value: 23.6 MT/ha). The format is functional.
Series [31] concerns Allium cepa. In words: Phytotoxicity in Allium cepa (onion) seedling assessed as total fresh weight at 0.86 kg/ha applied as spray before seed sowing (reference value: 7.71 MT/ha). The format is organism-based. The note with it: in vivo, other.

Each structure is given as a SMILES string.

Consider `CSc1nc(NC(C)C)nc(NC(C)C)n1` [PROMETRYN], for which the Activity with Cyperus rotundus [1] was determined as 19.8 MT/ha; with Chenopodiastrum murale [2], 19.8 MT/ha; in the series on Malva sylvestris [3] it was 19.8 MT/ha; with Cyperus rotundus [4], 3.81 MT/ha; with Malva sylvestris [5], 3.81 MT/ha; in the series with Chenopodiastrum murale [6], 3.81 MT/ha. Besides, the Activity with Allium cepa [7] is recorded as 3.67 MT/ha.
Take `C#CC(C)(C)NC(=O)c1cc(Cl)cc(Cl)c1` [PRONAMIDE]: the Activity worked out at 20.5 MT/ha in the series with Cyperus rotundus [8], 3.61 MT/ha in the series with Cyperus rotundus [9] and 6.67 MT/ha with Allium cepa [10].
Turning to `Nc1cnn(-c2ccccc2)c(=O)c1Cl` [PYRAZON], the Activity is 9.5 MT/ha with Cyperus rotundus [11]; 9.5 MT/ha in the series with Malva sylvestris [12]; 9.5 MT/ha with Chenopodiastrum murale [13]; 1.94 MT/ha in the series with Chenopodiastrum murale [14]; 1.94 MT/ha with Cyperus rotundus [15]; 1.94 MT/ha in the series on Malva sylvestris [16]. Besides, the Activity in the series with Allium cepa [17] was determined as 6.68 MT/ha.
As for `CCOC(=O)C(C)Oc1ccc(Oc2cnc3cc(Cl)ccc3n2)cc1` (stereo unspecified) [QUIZALOFOP ETHYL ESTER], the Activity amounted to 2.52 MT/ha in the series with Cyperus rotundus [18]; 2.52 MT/ha with Malva sylvestris [19]; 2.52 MT/ha in the series with Chenopodiastrum murale [20]; 10.7 MT/ha in the series with Cyperus rotundus [21]; 10.7 MT/ha with Malva sylvestris [22]; 10.7 MT/ha in the series with Chenopodiastrum murale [23]. Moreover, the Activity in the series on Allium cepa [24] turned out to be 10.11 MT/ha.
In the case of `CCCN(CCC)c1c([N+](=O)[O-])cc(C(F)(F)F)cc1[N+](=O)[O-]` [TRIFLURALIN], the Activity stood at 2.69 MT/ha with Cyperus rotundus [25]; 2.69 MT/ha in the series with Malva sylvestris [26]; 2.69 MT/ha in the series with Chenopodiastrum murale [27]; 14.8 MT/ha with Malva sylvestris [28]; 14.8 MT/ha in the series with Cyperus rotundus [29]; 14.8 MT/ha in the series on Chenopodiastrum murale [30]. Moreover, in the series with Allium cepa [31], the Activity was 7.04 MT/ha.

The values are drawn from ChEMBL document CHEMBL3045187, “Chemical weed control in seedbed sown onion (Allium cepa L.)” (Crop Prot, 2006).
